Assay results published in PubChem BioAssay AID192 (DTP/NCI, 2004).
Several values for one entry are separate records, joined by “and”; a condition that tells them apart may be missing. Equal values may be shown once. Inconclusive results and toxic doses are left out.

Test system: BDF1 mice, B16 melanoma ip, median survival T/C
Assay: NCI In Vivo Anticancer Drug Screen. Data for tumor model B16 Melanoma (intraperitoneal) in B6D2F1 (BDF1) mice
Settings: endpoint: median survival time, higher = longer survival
How it was run: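 Vehicle-treated animals serve as the reference (C); treated animals (T) are scored for survival or tumor size after tumor transplantation.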

[1] = dose: 50.0 mg/kg/injection, schedule: Q01DX009 (ip), vehicle: Klucel (hydroxypropylcellulose) (HPC)
[2] = dose: 100.0 mg/kg/injection, schedule: Q01DX009 (ip), vehicle: Klucel (hydroxypropylcellulose) (HPC)
[3] = dose: 200.0 mg/kg/injection, schedule: Q01DX009 (ip), vehicle: Klucel (hydroxypropylcellulose) (HPC)
[4] = dose: 100.0 mg/kg/injection, schedule: Q04DX003 (ip), vehicle: Klucel (hydroxypropylcellulose) (HPC)
[5] = dose: 50.0 mg/kg/injection, schedule: Q01DX009 (ip), vehicle: saline with Tween-80
[6] = dose: 100.0 mg/kg/injection, schedule: Q01DX009 (ip), vehicle: saline with Tween-80
[7] = dose: 6.25 mg/kg/injection, schedule: Q01DX009 (ip), vehicle: saline with Tween-80
[8] = dose: 12.5 mg/kg/injection, schedule: Q01DX009 (ip), vehicle: saline with Tween-80
[9] = dose: 25.0 mg/kg/injection, schedule: Q01DX009 (ip), vehicle: saline with Tween-80

In the case of `O=C1OC(C(O)CO)C(O)=C1O` (stereo not drawn), the T/C (dose: 0.12 mg/kg/injection, schedule: Q01DX009 (ip), vehicle: saline) is reported as 100 % of control, the T/C (dose: 0.25 mg/kg/injection, schedule: Q01DX009 (ip), vehicle: saline) is reported as 110 % of control and the T/C (dose: 0.5 mg/kg/injection, schedule: Q01DX009 (ip), vehicle: saline) is reported as 105 % of control. The T/C (dose: 1.0 mg/kg/injection, schedule: Q01DX001 (ip), vehicle: saline) was 102 % of control, the T/C (dose: 1.0 mg/kg/injection, schedule: Q01DX009 (ip), vehicle: saline) was 110 % of control and the T/C (dose: 2.0 mg/kg/injection, schedule: Q01DX001 (ip), vehicle: saline) was 100 % of control. The T/C (dose: 2.0 mg/kg/injection, schedule: Q01DX009 (ip), vehicle: saline) was 110 % of control, the T/C (dose: 4.0 mg/kg/injection, schedule: Q01DX001 (ip), vehicle: saline) was 95 % of control and the T/C (dose: 4.0 mg/kg/injection, schedule: Q01DX009 (ip), vehicle: saline) was 105 % of control. The T/C (dose: 8.0 mg/kg/injection, schedule: Q01DX001 (ip), vehicle: saline) was 102 % of control, the T/C (dose: 8.0 mg/kg/injection, schedule: Q01DX009 (ip), vehicle: saline) was 110 % of control and the T/C (dose: 16.0 mg/kg/injection, schedule: Q01DX001 (ip), vehicle: saline) was 100 % of control. For the same compound, the T/C (dose: 16.0 mg/kg/injection, schedule: Q01DX009 (ip), vehicle: saline) was 95 % of control, the T/C (dose: 32.0 mg/kg/injection, schedule: Q01DX001 (ip), vehicle: saline) was 100 % of control and the T/C (dose: 64.0 mg/kg/injection, schedule: Q01DX001 (ip), vehicle: saline) was 97 % of control.

With `c1ccc(Oc2ccccn2)cc1` the T/C [1] was 111 % of control, the T/C [2] was 117 % of control and the T/C [3] was 123 % of control.

`CC(=O)OC1=C(c2ccccc2)C(=O)c2ccccc21` was tested, and the T/C (dose: 25.0 mg/kg/injection, schedule: Q04DX003 (ip), vehicle: Klucel (hydroxypropylcellulose) (HPC)) was 86 % of control, the T/C (dose: 50.0 mg/kg/injection, schedule: Q04DX003 (ip), vehicle: Klucel (hydroxypropylcellulose) (HPC)) was 86 % of control and the T/C [4] was 86 % of control.

`Cc1ccc2c(c1)CC(C)([CH2][Hg][Cl])O2` (stereo not drawn) was tested, and the T/C (dose: 0.75 mg/kg/injection, schedule: Q01DX009 (ip), vehicle: Klucel (hydroxypropylcellulose) (HPC)) was 100 % of control, the T/C (dose: 0.75 mg/kg/injection, schedule: Q04DX003 (ip), vehicle: Klucel (hydroxypropylcellulose) (HPC)) was 95 % of control and the T/C (dose: 1.5 mg/kg/injection, schedule: Q01DX009 (ip), vehicle: Klucel (hydroxypropylcellulose) (HPC)) was 93 % of control. The T/C (dose: 1.5 mg/kg/injection, schedule: Q04DX003 (ip), vehicle: Klucel (hydroxypropylcellulose) (HPC)) was 100 % of control, the T/C (dose: 3.0 mg/kg/injection, schedule: Q01DX009 (ip), vehicle: Klucel (hydroxypropylcellulose) (HPC)) was 92 % of control and 95 % of control and the T/C (dose: 3.0 mg/kg/injection, schedule: Q04DX003 (ip), vehicle: Klucel (hydroxypropylcellulose) (HPC)) was 93 % of control and 95 % of control.

`C#CCOCC(CCl)OC(N)=O` (stereo not drawn) was tested, and the T/C (dose: 50.0 mg/kg/injection, schedule: Q04DX003 (ip), vehicle: saline with Tween-80) was 111 % of control, the T/C (dose: 100.0 mg/kg/injection, schedule: Q04DX003 (ip), vehicle: saline with Tween-80) was 105 % of control and the T/C (dose: 200.0 mg/kg/injection, schedule: Q04DX003 (ip), vehicle: saline with Tween-80) was 108 % of control.

For `O=C(O)CSc1nc(-c2ccccc2)c(-c2ccccc2)n1-c1ccccn1`, the T/C (dose: 12.5 mg/kg/injection, schedule: Q01DX009 (ip), vehicle: water) was 98 % of control, the T/C (dose: 25.0 mg/kg/injection, schedule: Q01DX009 (ip), vehicle: water) was 97 % of control and the T/C (dose: 50.0 mg/kg/injection, schedule: Q01DX009 (ip), vehicle: water) was 98 % of control. For the same compound, the T/C (dose: 100.0 mg/kg/injection, schedule: Q01DX009 (ip), vehicle: water) was 98 % of control.

For `OC(CC1(O)C(F)(F)C(F)(F)C1(F)F)c1ccccc1` (stereo not drawn), the T/C [5] was 107 % of control, the T/C [6] was 110 % of control and the T/C (dose: 200.0 mg/kg/injection, schedule: Q01DX009 (ip), vehicle: saline with Tween-80) was 94 % of control.

`CC[CH2][Pb]([CH2]CC)([CH2]CC)[N]1C(=O)c2ccccc2C1=O` was tested, and the T/C (dose: 3.12 mg/kg/injection, schedule: Q01DX009 (ip), vehicle: Klucel (hydroxypropylcellulose) (HPC)) was 109 % of control and the T/C (dose: 6.25 mg/kg/injection, schedule: Q01DX009 (ip), vehicle: Klucel (hydroxypropylcellulose) (HPC)) was 101 % of control.

`Cc1cc(Cc2ccc(N=C=O)c(C)c2)ccc1N=C=O` was tested, and the T/C (dose: 3.13 mg/kg/injection, schedule: Q01DX009 (ip), vehicle: saline with Tween-80) was 89 % of control, the T/C [7] was 92 % of control and the T/C [8] was 92 % of control and 102 % of control.

With `Cn1c2nc3ccccc3c-2nc2ccccc21` the T/C (dose: 1.56 mg/kg/injection, schedule: Q01DX009 (ip), vehicle: water) was 95 % of control, the T/C (dose: 3.13 mg/kg/injection, schedule: Q01DX009 (ip), vehicle: water) was 96 % of control and the T/C (dose: 6.25 mg/kg/injection, schedule: Q01DX009 (ip), vehicle: other) was 105 % of control. For the same compound, the T/C (dose: 6.25 mg/kg/injection, schedule: Q01DX009 (ip), vehicle: water) was 90 % of control, the T/C (dose: 12.5 mg/kg/injection, schedule: Q01DX009 (ip), vehicle: other) was 104 % of control and the T/C (dose: 25.0 mg/kg/injection, schedule: Q01DX009 (ip), vehicle: other) was 97 % of control. The T/C [1] was 87 % of control and the T/C (dose: 50.0 mg/kg/injection, schedule: Q01DX009 (ip), vehicle: other) was 92 % of control.

With `O=C1OC(=O)C2C1C1C3C=CC3C1C21C=C1` (stereo not drawn) the T/C [2] was 87 % of control and the T/C [3] was 87 % of control.

With `CC1(c2ccccc2)CCc2ccccc21` (stereo not drawn) the T/C [9] was 103 % of control, the T/C [5] was 89 % of control and the T/C [6] was 90 % of control.

For `C=CCN(C(=O)OCC)c1ccccc1`, the T/C [2] was 100 % of control and the T/C [3] was 97 % of control.

With `CCOC(=O)C1C2OC(=O)C(C(=O)C2CN(CCCl)CCCl)C1C1CC=C(CC2=CCC(C3C4C(=O)OC(C(CN(CCCl)CCCl)C4=O)C3C(=O)OCC)CC2)CC1` (stereo not drawn) the T/C (dose: 12.5 mg/kg/injection, schedule: Q01DX009 (ip), vehicle: Klucel (hydroxypropylcellulose) (HPC)) was 107 % of control, the T/C [8] was 113 % of control and the T/C (dose: 25.0 mg/kg/injection, schedule: Q01DX009 (ip), vehicle: Klucel (hydroxypropylcellulose) (HPC)) was 118 % of control. The T/C [9] was 119 % of control, the T/C [5] was 150 % of control and the T/C [2] was 153 % of control. The T/C [6] was 174 % of control.

With `O=C(CCCN1CCC2(CC1)C(=O)NCN2c1ccccc1)c1ccc(F)cc1` the T/C (dose: 0.39 mg/kg/injection, schedule: Q01DX009 (ip), vehicle: saline) was 92 % of control, the T/C (dose: 0.78 mg/kg/injection, schedule: Q01DX009 (ip), vehicle: saline) was 89 % of control and the T/C (dose: 1.56 mg/kg/injection, schedule: Q01DX009 (ip), vehicle: saline) was 94 % of control.

`CCOC(=O)NC(C(=O)OC)C(=O)OC` was tested, and the T/C [4] was 95 % of control, the T/C [3] was 93 % of control and the T/C (dose: 200.0 mg/kg/injection, schedule: Q04DX003 (ip), vehicle: Klucel (hydroxypropylcellulose) (HPC)) was 97 % of control. For the same compound, the T/C (dose: 400.0 mg/kg/injection, schedule: Q01DX009 (ip), vehicle: Klucel (hydroxypropylcellulose) (HPC)) was 87 % of control and the T/C (dose: 400.0 mg/kg/injection, schedule: Q04DX003 (ip), vehicle: Klucel (hydroxypropylcellulose) (HPC)) was 90 % of control.

With `CNC(=O)OCC(Cl)(Cl)Cl` the T/C (dose: 75.0 mg/kg/injection, schedule: Q01DX009 (ip), vehicle: Klucel (hydroxypropylcellulose) (HPC)) was 102 % of control, the T/C (dose: 150.0 mg/kg/injection, schedule: Q01DX009 (ip), vehicle: Klucel (hydroxypropylcellulose) (HPC)) was 114 % of control and the T/C (dose: 300.0 mg/kg/injection, schedule: Q01DX009 (ip), vehicle: Klucel (hydroxypropylcellulose) (HPC)) was 102 % of control.

`CC(C)C1NC(=O)NC1=O` (stereo not drawn) was tested, and the T/C (dose: 100.0 mg/kg/injection, schedule: Q01DX009 (ip), vehicle: saline) was 100 % of control, the T/C (dose: 100.0 mg/kg/injection, schedule: Q04DX003 (ip), vehicle: saline) was 100 % of control and the T/C (dose: 200.0 mg/kg/injection, schedule: Q01DX009 (ip), vehicle: saline) was 95 % of control. For the same compound, the T/C (dose: 200.0 mg/kg/injection, schedule: Q04DX003 (ip), vehicle: saline) was 106 % of control, the T/C (dose: 400.0 mg/kg/injection, schedule: Q01DX009 (ip), vehicle: saline) was 100 % of control and the T/C (dose: 400.0 mg/kg/injection, schedule: Q04DX003 (ip), vehicle: saline) was 97 % of control.

In the case of `Cc1cc[n+](CCc2ccccc2)cc1`, the T/C [7] is reported as 92 % of control, the T/C [8] is reported as 88 % of control and the T/C [9] is reported as 95 % of control. The T/C [5] was 88 % of control.

`NC(N)=Nc1ccc(C(=O)O)cc1` was tested, and the T/C (dose: 33.0 mg/kg/injection, schedule: Q01DX009 (ip), vehicle: saline with Tween-80) was 100 % of control, the T/C [5] was 96 % of control and the T/C (dose: 75.0 mg/kg/injection, schedule: Q01DX009 (ip), vehicle: saline with Tween-80) was 96 % of control.
